The text below walks through data of article PMC6695598, “The Development of Tetrazole Derivatives as Protein Arginine Methyltransferase I (PRMT I) Inhibitors” (International Journal of Molecular Sciences, 2019).

By IC50 is commonly meant the concentration that inhibits the measured activity by half. What is called inhibition is the change of the read-out against control, counted positive when it falls.

Entries after “also recorded” stand apart in the source; their conditions may differ.

Data set [1] relates to PRMT6. Set-up: method as in PMID 26598975. The settings on record: cited from earlier work.
Data set [2] concerns the target T1, PRMT1 (Homo sapiens, UniProt Q99873). The experiment in a line: radioactive PRMT1 methylation inhibition assay ([3H]-SAM, biotinylated histone H4 peptide). The format is biochemical. Here is the method: A series of 1,5-substituded tetrazole derivatives were synthesized to investigate the structure-activity relationship (SAR) of PRMT1 inhibitors (Table 1). […] The chemical modification of these compounds is mainly focused on the substituted benzene ring. The initial screening of these compounds was carried out using the radioactive PRMT1 methylation inhibition assay, which measured the amount of methyl groups that transferred from [^3H]-SAM to a biotinylated histone H4 peptide (ac- […](Biotin)). […] In the second step, the Group II compounds were designed and synthesized by extending the ethylenediamine side chain to propylenediamine.
(§1) The enzyme inhibitory activities were measured by the radioisotope assay in ShangHai Chempartner Co. Ltd. according to the standard protocol. The similar procedure was recently performed in the publication The radioactive methylation assay was performed in 1× assay buffer (modified Tris buffer) system containing enzyme (PRMT1/5), peptide and [^3H]-SAM solution and compounds on the assay plate. […] Afterwards, the reaction was stopped with addition of 5 μL cold SAM solution to per well. Then, 25 μL of volume per well was transferred to Flashplate from assay plate and incubated for 1 h minimum at room temperature. Finally, the Flashplate was washed with dH2O and 0.1% Tween-20 three times and then reading plate in Mi crobeta using program ^3H-Flashplate. The data was analyzed in GraphPad Prism 5 to obtain IC50 values.

Data set [3] addresses PRMT5 (Homo sapiens, UniProt O14744). Description: radioactive methylation assay, PRMT5 selectivity. The format is biochemical. As for the experimental part: as §1
In data set [4] the target is T1, PRMT1. Description: Mechanism of Action (MOA) study, competition with SAM and peptide on PRMT1. The format is biochemical. The settings on record: IC50 at varied SAM (0.5-60× Km) or peptide (0.5-100× Km) concentrations. The text has this: Both PRMT1 and PRMT6 are Type I PRMTs, and their structures share the high degree similarity. […] Based on the crystal structure, it can be predicated that MS023 should be a competitive inhibitor against the peptide. […] There are potential explanations for the current contradictory results. First, the main binding effects of the substrate were from the outside regions of arginine-binding site.
The method is consistent with the procedure described above.

Data set [5] is described as follows: WST-8/CCK8 cell viability assay. The format is cell-based. The settings on record: human, MDA-MB-231 breast cancer cells, read-out: IC50 against MDA-MB-231 (cytotoxicity). As for the experimental part: The MDA-MB-231 cell line used in this study was obtained from the American Type Culture Collection (ATCC, Rockville, MD, USA), and was grown in dulbecco’s modified eagle medium (DMEM, Gibco, Thermo Fisher Scientific, Waltham, MA, USA) supplemented with 10% fetal bovine serum (FBS) (Gibco). The cells were incubated at 37 °C and 5% CO2.
The cytotoxicity was determined by the CCK8 assay. Briefly, MDA-MB-231 cells (5 × 10^3 cells/well) were seeded in 96-well plates in DMEM containing 10% FBS and grew for 24 h. The exponentially growing cells were incubated with various concentrations of compounds for 48h/72h in serum free DMEM at 37 °C (5% CO2, 95% humidity). CCK8 reagent (10 μL) was added to each well and incubated for further 2 h, and then the absorbance was analyzed in a multiwell-plate reader (BioTek ELx800) at 450 nm.

Data set [6] deals with MDA-MB-231 cells. Description: Western blotting of PRMT1 and Wnt pathway markers. The format is cell-based. Here is the method: MDA-MB-231 cells were maintained on 6-well plates at the appropriate density. […] Total cell lysates were separated by SDS-PAGE and transferred onto nitrocellulose membranes. The blots were blocked with 5% nonfat milk for 30 min and the target proteins were probed with appropriate specific antibody overnight at 4 °C, respectively. The blots were washed with TBST for three times and then incubated with anti-rabbit secondary antibody (HRP conjugated) for 1 h. After another three washes, bands were detected in a ChemiScope3400 imaging system using ECL substrate (Millipore, Burlington, MS, USA). Primary antibodies used were as follows: anti-PRMT1 (Cell Signaling Technology no.2449, Danvers, MA, USA), anti-ADMA (Cell Signaling Technology no.13522), anti-SDMA (Cell Signaling Technology no.13222), anti-GAPDH (Cell Signaling Technology no. 5174), anti-H4R3me2a Abcam, ab9231), Wnt3a (Cell Signaling Technology no. 2721s), anti-DDAH (Abcam, ab9231, Cambridge, UK), Wnt5a/b (Cell Signaling Technology no. 2530s), β-catenin (Cell Signaling Technology no. 8480s), MMP9 (Cell Signaling Technology no.1366s). The results were obtained from multiple membranes. No significant differences were observed among loading controls. Therefore, we presented the representative loading control blot image in the figure.

Where [7] appears, read: MDA-MB-231, 48 h, top concentration 200 μM.

T1 sequence (Q99873 whole entry): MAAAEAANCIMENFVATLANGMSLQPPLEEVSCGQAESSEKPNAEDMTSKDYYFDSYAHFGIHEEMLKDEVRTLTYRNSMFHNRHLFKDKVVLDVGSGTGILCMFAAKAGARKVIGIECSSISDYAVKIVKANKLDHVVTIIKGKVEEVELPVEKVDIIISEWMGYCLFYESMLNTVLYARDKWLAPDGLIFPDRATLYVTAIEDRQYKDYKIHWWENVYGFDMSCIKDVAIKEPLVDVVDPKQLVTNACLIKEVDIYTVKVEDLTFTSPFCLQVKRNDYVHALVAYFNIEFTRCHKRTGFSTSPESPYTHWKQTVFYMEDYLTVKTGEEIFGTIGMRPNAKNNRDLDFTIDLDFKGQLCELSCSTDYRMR
Chain of PRMT5 (O14744 whole entry, species assumed): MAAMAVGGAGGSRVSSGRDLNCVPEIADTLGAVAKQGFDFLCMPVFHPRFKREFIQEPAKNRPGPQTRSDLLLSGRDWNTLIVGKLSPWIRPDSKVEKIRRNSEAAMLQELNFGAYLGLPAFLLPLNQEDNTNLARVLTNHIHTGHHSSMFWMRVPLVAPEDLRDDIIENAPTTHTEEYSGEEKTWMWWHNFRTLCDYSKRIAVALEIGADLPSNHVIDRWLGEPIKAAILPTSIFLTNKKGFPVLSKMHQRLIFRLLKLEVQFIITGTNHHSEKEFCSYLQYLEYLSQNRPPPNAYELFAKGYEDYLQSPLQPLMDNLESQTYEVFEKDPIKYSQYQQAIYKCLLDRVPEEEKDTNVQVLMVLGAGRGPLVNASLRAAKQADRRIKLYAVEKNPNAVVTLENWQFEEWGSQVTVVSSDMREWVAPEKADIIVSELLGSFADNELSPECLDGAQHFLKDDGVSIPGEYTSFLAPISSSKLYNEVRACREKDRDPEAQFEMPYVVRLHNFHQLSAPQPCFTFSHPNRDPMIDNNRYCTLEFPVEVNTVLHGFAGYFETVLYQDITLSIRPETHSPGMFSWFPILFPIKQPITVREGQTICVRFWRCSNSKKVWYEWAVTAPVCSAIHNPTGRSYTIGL
Chain of PRMT5 (Q9BQA1 whole entry partner, species assumed): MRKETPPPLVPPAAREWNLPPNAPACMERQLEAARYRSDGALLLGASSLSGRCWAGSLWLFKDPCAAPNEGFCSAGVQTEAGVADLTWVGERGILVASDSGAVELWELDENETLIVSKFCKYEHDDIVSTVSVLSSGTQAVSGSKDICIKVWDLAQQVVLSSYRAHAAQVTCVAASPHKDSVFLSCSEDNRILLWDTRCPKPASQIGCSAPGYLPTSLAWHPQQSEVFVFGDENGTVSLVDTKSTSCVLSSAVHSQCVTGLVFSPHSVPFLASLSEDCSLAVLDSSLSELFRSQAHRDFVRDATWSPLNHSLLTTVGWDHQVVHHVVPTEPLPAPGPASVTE

For the molecule `CC(C)Oc1ccc(-c2c[nH]cc2CN(C)CCN)cc1` [MS023], the “mode of inhibition with respect to SAM and peptide substrate” value in data set [1] is “noncompetitive with either SAM or peptide substrate”.

As for `CNCCN(C)Cc1nnnn1-c1ccc(OC(C)C)cc1.Cl` [9a, N,N’-Dimethyl-N’-(1-(4-isopropoxyphenyl)-1H-tetrazol-5-yl-methyl)ethylenediamine hydrochloride], the IC50 in data set [2] is 3.5 µM. Further, the inhibition at 10 µM in data set [2] (10 μM compound, initial screening) was above 47%. The IC50 in data set [3] is above 100 µM. Further, the “mode of inhibition with respect to SAM and peptide substrate” value in data set [4] was “noncompetitive inhibitor for either the cofactor SAM or peptide substrate; also recorded: non-competitive pattern with respect to either SAM or substrate arginine; also recorded: did not compete with either SAM or peptides”. Further, in data set [5] (48 h), the half-maximal inhibitory concentration (IC50) at 48 h is above 500 µM. Moreover, the IC50 at 72 h in data set [5] (72 h) came to 541 ± 6.5 µM. In addition, in data set [6] (setting [7]), the “global level of ADMA” value is listed as “significantly decreased in a concentration-dependent manner; also recorded: significantly decreased in concentration-dependent manners”, the “global level of H4R3me2as” value is listed as “decreased the global level of H4R3me2as in a concentration-dependent manner; also recorded: significantly decreased in concentration-dependent manners”, the “global level of SDMA” value is “not significantly affected; also recorded: not significantly changed” and the “level of DDAH” value is “significantly decreased in a concentration-dependent manner; also recorded: significantly decreased in concentration-dependent manners”. Moreover, in data set [6] (setting [7]), the “level of Wnt3a” value is reported as “significantly decreased in concentration-dependent manners”, the “level of Wnt5a” value is recorded as “did not change significantly; also recorded: not changed” and the “level of β-catenin” value is recorded as “significantly decreased in concentration-dependent manners”. In data set [6] (MDA-MB-231, top concentration 200 μM), the “cell damage during the western blotting experiment” value was “no obvious cell damage was observed”.
